Patent publication US12103965B2, “Diagnostic kit” (Phoenix Pharmaceuticals, Inc., priority 2011, dated 2024)
Where no end group is shown, it is not given here.

Assays:
[1] = test system: rat pituitary adenoma cells, RC-4B/C; experiment: cAMP production in pituitary cells (cAMP Biotrak enzyme immunoassay); type: cell-based; settings: 100 nM peptide, 30 min, in presence of IBMX; PBS-control 100% = 4.94±0.5 pmol/mg protein
Procedure: Rat pituitary adenoma cells, RC-4B/C (CRL-1903; ATCC, Manassas, VA, USA), were cultured in Dulbecco's Modified Eagle's Medium and Minimum Essential Alpha Medium (Invitrogen, CA, USA) supplemented with 0.01 mM non-essential amino acids, 15 mM HEPES, 2.5 ng/ml epidermal growth factor, and dialyzed, heat-inactivated fetal bovine serum (“FBS”) at 37° C. in a humidified cell incubator containing 5% carbon dioxide (“CO2”). After 2 days of cell cultured in 24 wells plate, cell were equilibrated for 2 hours in serum-free medium and then incubated with 0.1 mM 3-isobutyl-1-methylxanthine (“IBMX”) in serum-free medium 30 min again. Then, cells were challenged with either 100 nM of […]-NH2 (SEQ. ID NO: 7), DVQPPGLKVWSDPFG (SEQ. ID NO: 3), DVQPPGLKVWSDPF-NH2 (SEQ. ID NO: 9), or a PBS-control in the presence of IBMX and incubated for 30 min. After incubation, supernatant medium was then aspirated and the cells in each well were extracted by 70% cold ethanol. Alcohol was evaporated in a vacuum concentrator (PN: AES 2000, Savant, Hicksvile, NY, USA) Thereafter, cAMP content was determined by using a cAMP Biotrak enzyme immunoassay kit (GE healthcare-Amersham, Piscataway, NJ, USA) in accordance with the protocol of the manufacturer.

[2] = test system: antibodies raised to AGIVQEDVQPPGLKVWSDPF-NH2 (SEQ. ID NO: 7); experiment: RIA/EIA cross-reactivity of anti-phoenixin antibodies; type: binding; settings: RIA or EIA
Procedure: Homogenates were prepared from heart tissues of adult rats. The supernatant of the rat heart homogenates were passed through C18 column extraction cartridges and P6 gel filtration to further purify native peptide candidates. The immunoreactive fractions as determined by conventional enzyme immunoassay (“EIA”) in which labeled chemically synthesized peptides as described above compete with unlabeled native phoenixin peptide for a limited quantity of the anti-phoenixin peptide antibodies, produced as above described. The label can be biotin complex which by reaction with streptavidin horseradish peroxidase and sequent reaction of the horseradish peroxidase with colormetric or fluorescence substrates can be quantitated. […]
Homogenates of porcine or bovine or rat tissue of heart, lung, kidney, spinal cord, small intestine, liver, pancreas, hypothalamus, spleen, and thymus were prepared as above-described and the resulting fractions were processed by the above-described peptides extraction procedure and were assayed by radio-immunoassay (“[…]”) or Enzyme Immunoassay (EIA) using antibodies raised to […]-NH2 (SEQ. ID NO: 7). […] Protein concentrations were determined by bicinchoninic acid (“BCA”) protein assay in accordance to the protocol of the manufacturer Thermo Scientific, Rockford, Illinois using bovine serum albumin (“BSA”) as a standard. […]

[3] = test system: rat pituitary adenoma cells, RC-4B/C; type: binding
Procedure: Also, rat pituitary adenoma cells, RC-4B/C cells, were used in the assay of radioligand binding. For the binding displacement, cells were incubated for 30 min with 50 pM 125I-Y0-Phoenixin-20 (amide SEQ. ID NO: 7) in the absence or presence of increasing concentrations of un-labeled Phoenixin-20 amide (amide SEQ. ID NO: 7) or phoenixin-14 amide (amide SEQ. ID NO: 9). Nonspecific binding was defined as total binding in the presence of 1 μM unlabeled Phoenixin-20 amide (amide SEQ. ID NO: 7) or phoenixin-14 amide (amide SEQ. ID NO: 9). After termination of the binding reaction by washing the cells with 1 ml of cold PBS, cells were solubilized with 0.5 ml of 1% SDS, and radioactivity was detected in a gamma counter.

Substance	increase of intracellular cAMP production over the PBS control [1]	cross-reactive with antibodies raised to SEQ. ID NO: 7 [2]	IC50 [3]
phoenixin (7-21) (DVQPPGLKVWSDPFG; listed as Homo sapiens) [SEQ. ID NO: 3]	greater than two fold and even three-fold	less than 0.5%	
DVQPPGLKVWSDPF-NH2 [SEQ. ID NO: 9, phoenixin (7-20) amide]	greater than two fold and even three-fold	100%	17.9 nM
AGIVQEDVQPPGLKVWSDPF-NH2 [SEQ. ID NO: 7, phoenixin (1-20) amide]	greater than two fold and even three-fold		21.5 nM
